Measurements reported in publication PMC4467461, “Small-molecule activation of SERCA2a SUMOylation for the treatment of heart failure” (Nature Communications, 2015).

Biological target: T1, ubiquitin-activating enzyme (Ub E1) (Homo sapiens, UniProt P22314)
T1 sequence (P22314 1-1058): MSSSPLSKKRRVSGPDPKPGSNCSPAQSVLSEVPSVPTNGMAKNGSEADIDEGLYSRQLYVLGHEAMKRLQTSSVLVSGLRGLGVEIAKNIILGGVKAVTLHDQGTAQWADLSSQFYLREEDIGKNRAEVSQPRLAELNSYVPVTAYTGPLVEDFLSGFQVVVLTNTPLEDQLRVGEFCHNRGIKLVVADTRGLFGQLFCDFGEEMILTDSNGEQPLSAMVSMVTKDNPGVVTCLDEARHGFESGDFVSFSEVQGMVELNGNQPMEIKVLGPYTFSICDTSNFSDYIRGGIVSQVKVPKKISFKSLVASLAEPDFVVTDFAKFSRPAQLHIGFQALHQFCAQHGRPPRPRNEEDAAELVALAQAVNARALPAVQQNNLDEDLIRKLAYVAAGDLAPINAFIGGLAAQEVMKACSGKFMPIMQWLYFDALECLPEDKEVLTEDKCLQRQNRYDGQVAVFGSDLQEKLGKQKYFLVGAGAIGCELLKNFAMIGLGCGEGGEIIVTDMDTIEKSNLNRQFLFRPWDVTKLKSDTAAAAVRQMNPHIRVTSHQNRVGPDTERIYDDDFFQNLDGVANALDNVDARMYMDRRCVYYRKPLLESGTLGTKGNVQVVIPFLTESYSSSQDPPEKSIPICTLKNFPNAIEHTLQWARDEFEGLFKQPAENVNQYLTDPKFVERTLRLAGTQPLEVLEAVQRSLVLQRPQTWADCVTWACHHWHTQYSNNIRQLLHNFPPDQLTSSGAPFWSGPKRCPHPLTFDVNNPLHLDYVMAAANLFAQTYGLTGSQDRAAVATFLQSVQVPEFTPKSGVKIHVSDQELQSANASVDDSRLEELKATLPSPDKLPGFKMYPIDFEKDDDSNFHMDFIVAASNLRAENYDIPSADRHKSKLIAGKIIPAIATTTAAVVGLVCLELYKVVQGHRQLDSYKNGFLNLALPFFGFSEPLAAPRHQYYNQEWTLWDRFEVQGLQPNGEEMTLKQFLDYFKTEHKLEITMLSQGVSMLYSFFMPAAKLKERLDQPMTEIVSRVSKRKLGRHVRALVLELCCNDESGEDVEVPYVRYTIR
Experiment: Ubiquitin-activating E1 enzyme activity (ATP hydrolysis and in vitro conjugation assays)
Type: biochemical
Conditions: at concentrations up to 100 μM
Protocol: Biochemical activity of SUMO-specific E1 enzymes was examined by ATPase assay and in-vitro gel-shifting assays. ATP hydrolysis activity of E1 enzymes was measured by using pyrophosphate assay kit (Abcam Inc.). E1 (0.05 μM), 0.25 μM E2, 12.5 μM SUMO-1 and 1 mM ATP with N106 or DMSO were used for the assays. The E1-thioester formation was analysed in reaction mixtures containing 0.05 μM E1, 12.5 μM SUMO-1 and 1 mM ATP with N106 or DMSO. The E1-dependent E2-SUMO-1 thioester formation was assessed using reaction containing 0.05 μM E1, 0.25 μM E2, 12.5 μM SUMO-1 and 1 mM ATP with N106 or DMSO. Assays were incubated at 37 °C for 30 min and were mixed with non-reducing sample buffer, and analysed in non-reducing condition. Western blotting using antibodies against SAE2 and Ubc9 detected the SUMO conjugations. […]
Supplementary Figure 5. […] Ubiquitin activating E1 enzyme activity was determined by ATP hydrolysis and in vitro conjugation assays. […] Inorganic pyrophosphate resulting from ATP hydrolysis in E1-catalazed ubiquitin activity was quantified with the use of a fluorogenic pyrophosphate assay kit. […] Thioester bond formation between ubiquitin specific E1 enzyme and ubiquitin were detected by Western blot analysis. […] E1-dependent thioester bond formation between E2 and ubiquitin was detected by Western blotting with anti-ubiquitin antibody. […]

COc1ccc(-c2nnc(Nc3nc4c(OC)cccc4s3)o2)cc1 [Compound N106, N-(4-methoxybenzo[d]thiazol-2-yl)-5-(4-methoxyphenyl)-1,3,4-oxadiazol-2-amine]
in-vitro activity of Ub E1 (ubiquitin activation, conjugation of ubiquitin to Ub E1, Ub E1-dependent conjugation to E2 cdc32): did not significantly stimulate
